Three compounds from patent publication US6335339B1, “Triazine antiviral compounds” (Scriptgen Pharmaceuticals, Inc., priority 1998, dated 2002) can be followed below.

Entries after “also recorded” stand apart in the source; their conditions may differ.

The CC50 is the concentration giving 50% cytotoxicity.

In one data set the test system is εRNA. Briefly: RNase protection of end-labeled εRNA (B. Cereus RNase). Format: binding, Hepatitis B virus. Particulars: compound 0 to 200 μM, 25° C., 30 minutes. As to the method: RNase protection was assessed by incubating an end-labeled RNA with the amount of RNase needed to yield a ladder representing single cut events at each possible cleavage site in the RNA structure (based upon a gel electrophoresis analysis). The presence of a ligand bound to the RNA renders the binding site inaccessible to the RNases and therefore, the binding site will be shown by the disappearance or weakening of specific bands in the digestion pattern (FIGS. 258A and 258B).
Reaction mixtures (10 μl) containing 50 mM Tris-HCl, pH 7.5, 50 mM KCl, 0.5 mg/ml rRNA (as a carrier), 0.5 pmol of 3′-end ^32P-labeled εRNA, 0.05 units of B. Cereus RNase, and compound 5 at concentrations between 0 and 200 μM were incubated at 25° C. for 30 minutes. The reaction products were resolved by gel electrophoresis in polyacrylamide gels. B. Cereus nuclease is a single strand specific RNase. The results are shown in FIG. 258A, wherein the sections of the ladder of digestion products corresponding to cleavage events occurring in the bulge and loop sections of the εRNA structure. […] Conversely, the loop and other regions of the structure where not affected.

Data set [1] has as its system RNA target containing only the bulge region of εRNA. Briefly: melting temperature of bulge RNA (OD 260 nm). Format: binding, Hepatitis B virus. Particulars: 2 μM RNA plus 10 μM compound; RNA without drug 65° C. On the procedure: The melting temperature of the RNA was determined by monitoring the change in optical density at 260 nm with increasing temperature.
Further, a smaller RNA target containing only the bulge region of εRNA was prepared, and the melting temperature (tm) of this RNA structure was determined by monitoring the change in optical density (OD) at 260 nm while increasing the temperature. A 1 ml aliquot of reaction mixture contained 50 mM NaCl, 10 mM sodium cacodylate, pH 7.0, 10% DMSO, and 2 μM bulge RNA.

The nature of data set [2]: neutral red dye uptake cytotoxicity. Format: cell-based. Particulars: human, 2.2.15 cells (confluent cultures), 9 days treatment, read-out: 50% Cell Death CC50. Summed up: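 Confluent 2.2.15 cultures, same conditions as antiviral assay, treated daily for 9 days with 4 concentrations (3.3-fold dilutions), triplicate wells. 24 hours after the final dose, cells stained 30 minutes with 0.01% neutral red, dye extracted and A510 read; values as % of untreated cultures, CC50 as 50% cell death.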

Take `CCCCN(CCCC)c1nc(NN=Cc2ccc([N+](=O)[O-])cc2)nc(Nc2ccc([N+](=O)[O-])cc2)n1` [Compound 5]: the “protection of εRNA from RNase cleavage” value in the data set on εRNA is on record as “protects specific positions of RNA from digestion with RNases; also recorded: decrease in cleavage at specific positions of the bulge”. As to `Cc1[nH]c2ccccc2c1C=NNc1nc(Nc2ccccc2)nc(Nc2ccc([N+](=O)[O-])cc2)n1` [Compound 6], in data set [1], the “melting temperature (tm) of bulge RNA” value was found to be 83 °C. Take `CCN(CC)c1nc(NCc2ccccc2)nc(N/N=C/c2ccccc2O)n1` [Compound 155, 2-hydroxybenzaldehyde N-[4-(benzylamino)-6-(diethylamino)-1,3,5-triazin-2-yl]hydrazone]: the CC50 at 9 days in data set [2] was found to be 59 µM.
